According to US6326020A (priority 1998, dated 2001):

What was measured:
thermal nociception = conditions: rat, in vivo
sciatic nerve [1] = test system: sciatic nerve; parameters: species or system Sprague-Dawley rat; conditions: rat, in vivo
sciatic nerve [2] = test system: sciatic nerve; parameters: species or system Sprague-Dawley rat; conditions: rat, in vivo; remark: listed apart in the source
sciatic nerve [3] = test system: sciatic nerve; parameters: species or system Sprague-Dawley rat; conditions: rat, in vivo; remark: listed apart in the source
sciatic nerve [4] = test system: sciatic nerve; parameters: species or system Sprague-Dawley rat; conditions: rat, in vivo; remark: listed apart in the source
sciatic nerve [5] = conditions: rat, in vivo
nerve block = test system: nerve block; parameters: species or system human; conditions: in vivo

For `CCCCN1CCCCC1C(=O)Nc1c(C)cccc1C` (centres unmarked) [Bupivacaine, bupivacaine], which “Duration of block, thermal nociception” value (thermal nociception) is on record?
The value was 104 ± 18 min.

What about the “Duration of Effective Block, Hop” value (sciatic nerve [1]) of the same compound?
Its value is 143 ± 48 min.

What about the “"Missed block" rate” value (sciatic nerve [2]) of the same compound?
Its value is 0%.

What about the Modalities impaired (sciatic nerve [2]) of the same compound?
The Modalities impaired was “all four modalities were impaired in all rats”.

What about the “Rate of successful block” value (sciatic nerve [2]) of the same compound?
The value was 100%.

And the “Duration of Effective Block, EPT” value (sciatic nerve [3])?
The value was 190 ± 56 min.

And the “Duration of Effective Block, PPR” value (sciatic nerve [4])?
Its value is 162 ± 44 min.

For `COc1cc(CNC(=O)CCCC/C=C/C(C)C)ccc1O` [capsaicin, trans-8-methyl-N-vanillyl-6-nonenamide], which “Dose required for prolonged block with TTX, fold below threshold for block from the vanilloid alone” value (sciatic nerve [5]) is on record?
Its value is “more than 5 fold”.

And the “Duration of prolonged block” value (sciatic nerve [5])?
Its value is 2 days.

What about the “Duration of prolonged block” value (nerve block) of the same compound?
The value was 3 to 4 days.

How did the “Reversal of established block from vanilloid-site 1 toxin combination” value (sciatic nerve [5]) turn out when `Oc1cc2c(cc1O)CN(C(=S)NCCc1ccc(Cl)cc1)CCC2` [capsazepine] was run?
Its value is “reverses established block”.

`C=C(C)C12CC(C)C34OC(Cc5ccccc5)(OC1C3C=C(COC(=O)Cc1ccc(O)c(OC)c1)CC1(O)C(=O)C(C)=CC14)O2` (centres unmarked) [resiniferotoxin] was tested. Which “Dose required for prolonged block with TTX, fold below threshold for block from the vanilloid alone” value (sciatic nerve [5]) did it give?
Its value is “more than 5 fold”.

What about the “Duration of prolonged block” value (sciatic nerve [5]) of the same compound?
The value was 2 days.

And the “Duration of prolonged block” value (nerve block)?
Its value is 3 to 4 days.
